The source of these data is patent publication US20220193253A1, “SLOW-RELEASE CYTOKINE CONJUGATES” (ProLynx LLC, priority 2019, published 2022).

“Also recorded” adds a separate entry of the source.

The test system of series [1] is Treg cells over Teff and NK cells. To be noted: cited from earlier work.
Series [2] has as its system T-cells in the spleen and islets. Briefly: Pharmacodynamics of IL2 and IL2[N88R,C125S] in NOD mice (flow cytometry of spleen and islets). It is filed as in vivo. The conditions noted are these: daily injections 25,000 units for five days. How it is done:
Mice were sacrificed 2 hours after the last injection and the spleen and pancreas were harvested for flow cytometry analysis to measure changes in total number of T-cells and their differentiation in the spleen and islets.
In general terms: In flow cytometry, cells or beads pass a laser one at a time.

A short description of series [3]: Pharmacokinetics of [aminopropyl]-IL-15 released from microsphere-IL-15. Format: in vivo, C57BL/6J mice. As for the experimental part:
The microsphere-IL-15 slurry of Example 10 (275 nmol protein/mL) was diluted in 25 mM Na citrate buffer pH 5.9 containing 500 mM NaCl, 0.05% tween-20 and 1.25% (w/v) hyaluronic acid. For studies that required various doses of microsphere-IL15, serial dilutions were used obtain the desired microsphere-IL-15 concentration. In all cases, aseptic conditions were used to handle and prepare the microsphere conjugate. Syringes with fixed needles (27G) were backfilled with the conjugate (100 μL). The contents of the syringes were administered either s.c. or i.p. to normal, male C57BL/6J mice. Blood samples were drawn at −24, 4, 8, 24, 48, 96, 168 and 240 hours from alternating groups consisting of 3 mice each. HALT protease inhibitor cocktail (ThermoFisher Scientific) was added to all plasma samples prior to being frozen at −80° C. until analysis.
ELISAs for hIL-15 were performed according to the manufacturer's instructions (R&D Systems, hIL-15 Quantikine, Catalog #D1500) to determine the rhIL-15 plasma. Plasma samples were thawed on ice prior to dilution in the standard diluent provided by the manufacturer. The 4, 8, hour samples were diluted 50-fold, the 24 hour samples was diluted twenty-five fold, and the pre-bleed, 48, 96, 168 and 240 hour samples were diluted ten-fold. hIL-15 concentrations were plot as a function of time and fit using GraphPad Prism software.
Pharmacokinetics of [aminopropyl]-IL-15 released from the microsphere conjugate were measured in normal C57BL/6J mice. Mice were dosed with 2.4 nmol conjugated protein (200 μL injection). […] After approximately 120 hours, the observed concentration quickly decreases (FIG. 11). A one phase decay model fit of data through 120 results in a half-life of at least 200 hours. […] A second injection of MS-IL-15 (50 μg) increases the measured plasma IL-15 at 248 h to a similar concentration of the initial dose.

In the next series the test system is cell proliferation. To be noted: cited from earlier work.
For series [4], the system named is Foxp3+CD4+ T-cells and CD8+ T-cells. The experiment in a line: Pharmacodynamics of microsphere-IL-2[N88R,C125S] in NOD mice (flow cytometry). Format: in vivo. How it is done:
Three groups of six NOD mice were used to determine the PK/PD of [aminopropyl]-IL-2[N88R,C125S] released from the microsphere-IL-2[N88R,C125S] conjugate. […] The second group was administered a subcutaneous injection of empty microspheres, in which cyclooctynes were capped with N3(CH2CH2O)7H. The third group was administered a single subcutaneous injection of the microsphere-IL-2[N88R,C125S] of Example 4 (0.5, 1, 5, 10 or 19 mg of protein/kg). Plasma, peripheral blood mononuclear cells (PBMCs) and organ tissues were prepared and analyzed according to the description in figure legends. Flow cytometric analysis of lymphocytes was performed to monitor changes in T-cell populations. The spleen and lymph nodes and islets were isolated and single cell suspensions were prepared. Surface-staining was performed following standard cell surface immunofluorescence staining for flow cytometry. Fixation and intracellular staining followed protocols from the eBioscience Foxp3/Transcription Factor Staining Buffer Set (ThermoFisher Scientific). Antibodies used were against CD3, CD4, CD8, CD25, CD44 CD45, and FoxP3; all were from commercial vendors. Stained single cell suspension were analyzed using a LSRII flow cytometer (BD Biosciences).
The percentage CD8+ cells found in the spleen and PBMCs were approximately 11% and 19% respectively. These percentages increased to approximately 25% and 60% respectively, when treated with the microsphere-IL-2[N88R,C125S]. NOD mice were administered IL2-mutein (QDx5, 25,000 units), a single injection of empty microspheres or microsphere-IL-2[N88R,C125S](18 mg/kg). Mice were sacrificed 2 hours after the last dose on day 5.
To determine an effective dose that would expand the Foxp3^+CD4^+Tcells population without the activation of CD8′ cells, a dose titration study of microsphere-IL-2[N88R,C125S] was performed. Four concentrations of the microsphere-IL-2[N88R,C125S](0.5 mg/kg, 1 mg/kg, 5 mg/kg and 10 mg/kg) were tested and the pharmacodynamics were monitored through PBMCs over two weeks. […] Foxp3^+CD4^+T-cell expansion peaked at four days and returned to baseline levels at day 14 for all doses (FIG. 9 A).

Another series has as its system CD8+ effector Tmem cells. The conditions noted are these: continuous infusion over 10 days; cited from earlier work.
Series [5] relates to CD44hiCD8+ T cells and NK cells in PBMCs. Briefly: Pharmacodynamics of [aminopropyl]-IL-15 released from microsphere-IL-15. Format: in vivo, C57BL/6J mice. The conditions noted are these: for expansion of CD44hiCD8+ T cells / expansion of NK cells: single dose 2.5 μg; for expansion of NK cells in PBMCs: single s.c. injection 12.5, 25 or 50 μg. How it is done:
For flow cytometry analysis, PMBCs were prepared and surface staining was performed to quantitate NK1.1, CD3, CD8, and CD44 expressing cells. Commercial FITC-, PE- or allophycocyanin-conjugated antibodies were used. Sample data were collected on a FACScan flow cytometer (BD Biosciences) and analyzed using FlowJo cytometry analysis software (TreeStar, Ashland, Oreg.).
Pharmacodynamics of [aminopropyl]-IL-15 released from the microsphere-IL-15 of Example 10 were measured in normal, male C57BL/6J mice (n=3/group) (FIG. 14). Mice were dosed with microsphere-IL-15 (2.5, 12.5, 25 or 50 μg conjugated protein) prepared in Example 10. PMBCs were prepared and surface stained for flow cytometry analysis of NK1.1, CD3, CD8, and CD44 expressing cells. Commercial FITC-, PE- or allophycocyanin-conjugated antibodies were used. Sample data were collected on a FACScan flow cytometer (BD Biosciences) and analyzed using FlowJo cytometry analysis software (TreeStar, Ashland, Oreg.).

The mark [6] stands for this setting: single injection 18 mg/kg, day 5.
[7] abbreviates: 2.5, 12.5, 25 or 50 μg conjugated protein.
[8] abbreviates: single sc injection 12.5, 25 or 50 μg.

Consider “BAY 50-4798: IL-2 mutein having an arginine replacing asparagine at position 88, SEQ ID No: 2”, for which, in series [1], the “increase in selectivity for activation of Treg cells over Teff and NK cells” value was 3,000 fold.
With “Proleukin: Aldesleukin (recombinant IL-2), used as native IL-2 comparator in NOD mice [reference compound]”, in series [2], the “effect on CD4+ and CD8+ effector/memory T-cells in the spleen” value is given as “increase in both T-cell populations”; the “effect on the T-cells in the islets compared to PBS vehicle” value was “little to no effect”.
For “[aminopropyl]-IL-15: IL-15 with N-terminal aminopropyl remnant, released from microsphere-IL-15”, in series [3] (50 μg), the “AUCip compared to AUCsc” value is “nearly two-fold higher”. For the same substance, in series [3] (released from MS-IL-15 50 μg i.p.), the AUCip was determined as 0.0252 µM·h. Moreover, the AUCsc in series [3] (released from MS-IL-15 50 μg s.c.) turned out to be 0.0149 µM·h.
In the case of “IL-15[N72D]: IL-15 mutein with enhanced receptor agonism, SEQ ID No: 15”, the “fold increase in biological activity over native IL-15” value in the series with cell proliferation is on record as 4-5 fold.
For the substance “microsphere-IL-2[N88R,C125S]: PEG hydrogel microspheres carrying linker-N-terminal aminopropyl-IL-2[N88R,C125S] (MeSO2 linker, reductive alkylation); releases [aminopropyl]-IL-2[N88R,C125S]”, in series [4] (doses 0.5-10 mg/kg, PBMCs), the “percentage / activation of CD8+ cells, dose titration” value is on record as “did not increase; also recorded: avoids activation”. In addition, in series [4] (setting [6]), the “expansion of Foxp3+CD4+ T-cells in spleen and PBMC” value is given as “massive expansion”; the “percentage CD8+ cells, PBMCs” value was 60%; the “percentage of T-cells that were Foxp3+CD4+ T-cells, PBMC” value is listed as approximately 55%; the “percentage of T-cells that were Foxp3+CD4+ T-cells, spleen” value is on record as approximately 70%. For the same substance, the “expansion of Foxp3+CD4+ T-cells in PBMCs, dose titration” value in series [4] (single injection 0.5, 1, 5, 10 mg/kg, two weeks) is reported as “dose dependent expansion; also recorded: preferentially expands”.
As for “rhIL-15: native IL-15, SEQ ID No: 12 [reference compound]”, the “expansion of CD8+ effector Tmem cells in the peripheral blood” value in the series on CD8+ effector Tmem cells was 100 x. In addition, in series [5], the “expansion of CD44hiCD8+ T cells” value is recorded as “no observed expansion” and the “expansion of NK cells” value is “not observed”.
Regarding “MS-IL-15: BCN-activated PEG hydrogel microspheres loaded with linker-IL-15 (MeSO2 linker, N-terminal reductive alkylation)”, the “change in average mouse body weight” value in series [3] (2.4 nmol conjugated protein) is listed as “no significant change”. In addition, the “final average mouse body weight” value in series [3] (2.4 nmol conjugated protein, initial 25.1±1.3 g) was found to be 25.1 ± 1.4 g. In series [5] (setting [7]), the “change in average body weight” value is listed as “no significant change” and the “clinical observation: injection site reaction” value is “no injection site reaction”. Besides, the “fold expansion of NK cells at peak” value in series [5] (12.5, 25 or 50 μg) was 2-3 fold. Further, the “CD44hiCD8+ T cells levels at 28 days” value in series [5] (highest dose 50 μg) is “two-fold above the control group”. In addition, in series [5] (initial 25.1±1.3 g), the “final average body weight” value came to 25.1 ± 1.4 g. In series [5] (single 50 ug injection), the “duration of expansion of CD44hiCD8+ T cells” value came out at 28 days. Moreover, in series [5], the “expansion of CD44hiCD8+ T cells” value is on record as “no observed expansion”, the “expansion of NK cells” value is “not observed” and the “expansion of NK cells in PBMCs” value is “dose dependent expansion”. Also, in series [5] (listed as microsphere-IL15), the “expansion of NK cells in PBMCs” value was “expands”. In series [5] (setting [8]), the “CD44hiCD8+ T cells remained elevated above the control group through” value worked out at 21 days, the “expansion of CD44hiCD8+ T cells in PBMCs” value was “dose dependent expansion”, the “fold expansion of CD44hiCD8+ T cells at peak” value was “two to four fold” and the “time of peak CD44hiCD8+ T cell expansion post treatment” value amounted to 5 days. The “expansion of CD44hiCD8+ T cells in PBMCs” value in series [5] (single sc injection 12.5, 25 or 50 μg, listed as microsphere-IL15) is given as “expands”.
